Reference: the supplement of paper PMC10307832

Experiments:
Assay in all cases: relative viability (nuclei count vs DMSO), 5 days (fraction); higher = more cells survive
[1] = compound: CN1CCN(CC1)C2=CC(=C(C=C2)NC3=NC=C4C(=N3)N(C5=CC=CC=C5C(=O)N4C)C)OC [XMD8-85] + CCNC(=O)c1noc(-c2cc(C(C)C)c(O)cc2O)c1-c1ccc(CN2CCOCC2)cc1 [Luminespib] (partner 0.01 µM)
Outline: (§1)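 Nuclei were stained with Hoechst during a one-step fixation (final 0.05% Triton X-100, 1% formaldehyde, 1 ug/ml Hoechst) carried out 5 days after dosing, then counted on 4× images. The cells, lung cancer lines in 1536-well plates, had been dosed by pin tool the day after seeding with one drug alone or a fixed anchor-drug dose plus five library-drug doses (not always all listed) in √10 steps. Relative viability is the nuclei count in treated wells divided by that in vehicle wells, and each value is the median of duplicate plates.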

[2] = compound: CN1CCN(CC1)C2=CC(=C(C=C2)NC3=NC=C4C(=N3)N(C5=CC=CC=C5C(=O)N4C)C)OC [XMD8-85] + O=C(c1cc(Cc2n[nH]c(=O)c3ccccc23)ccc1F)N1CCN(C(=O)C2CC2)CC1 [Olaparib] (partner 8 µM)
Outline: as §1

[3] = compound: O=C(O)C(Cc1ccccc1[N+](=O)[O-])=NNc1nc(-c2ccc(Cl)c(Cl)c2)cs1 (mixture of isomers) [4EGI-1] + CS(=O)(=O)N1CCN(Cc2cc3nc(-c4cccc5[nH]ncc45)nc(N4CCOCC4)c3s2)CC1 [Pictilisib] (partner 1 µM)
Outline: as §1

[4] = compound: O=C(O)C(Cc1ccccc1[N+](=O)[O-])=NNc1nc(-c2ccc(Cl)c(Cl)c2)cs1 (mixture of isomers) [4EGI-1] + NC(=O)Nc1cc(-c2cccc(F)c2)sc1C(=O)N[C@H]1CCCNC1 [AZD7762] (partner 0.2 µM)
Outline: as §1

Cell Line | relative viability ([1]; first compound 0.08 µM) | relative viability ([1]; first compound 0.253 µM) | relative viability ([1]; first compound 0.8 µM) | relative viability ([1]; first compound 2.53 µM) | relative viability ([1]; first compound 8 µM) | relative viability ([2]; first compound 0.08 µM) | relative viability ([2]; first compound 0.253 µM) | relative viability ([2]; first compound 0.8 µM) | relative viability ([2]; first compound 2.53 µM) | relative viability ([2]; first compound 8 µM) | relative viability ([3]; first compound 0.5 µM) | relative viability ([3]; first compound 1.581 µM) | relative viability ([3]; first compound 5 µM) | relative viability ([3]; first compound 15.81 µM) | relative viability ([3]; first compound 50 µM) | relative viability ([4]; first compound 0.5 µM) | relative viability ([4]; first compound 1.581 µM) | relative viability ([4]; first compound 5 µM) | relative viability ([4]; first compound 15.81 µM) | relative viability ([4]; first compound 50 µM)
NCI-H2347 | 0.545 | 0.405 | 0.243 | 0.208 | 0.306 | 0.55 | 0.598 | 0.617 | 0.619 | 0.559 | 0.469 | 0.488 | 0.579 | 0.738 | 0.361 | 0.858 | 0.78 | 0.734 | 0.732 | 0.593
NCI-H2405 | 0.63 | 0.727 | 0.625 | 0.704 | 0.643 | 0.908 | 0.919 | 0.949 | 0.859 | 0.817 | 0.471 | 0.355 | 0.547 | 0.571 | 0.518 | 0.746 | – | 0.851 | 0.692 | 0.285
NCI-H3122 | 0.117 | – | 0.115 | 0.106 | 0.102 | 0.574 | 0.673 | 0.691 | 0.762 | 0.676 | 0.599 | 0.531 | 0.632 | 0.635 | 0.412 | 1.01 | 0.972 | 0.957 | 0.926 | 0.48
PC-3 [JPC-3] | 0.725 | 0.805 | 0.663 | 0.82 | 0.543 | 1.11 | 1.22 | 1.25 | 1.16 | 0.978 | 0.772 | 0.826 | 0.706 | – | 0.458 | 0.845 | – | 0.868 | 0.519 | 0.323
PC-14 | 0.14 | 0.167 | 0.179 | 0.154 | 0.134 | 0.253 | 0.213 | 0.229 | 0.237 | 0.14 | 0.879 | 0.464 | 0.602 | – | 0.704 | 0.342 | – | 0.367 | 0.117 | 0.0594
RERF-LC-KJ | 1.32 | 1.14 | 1.3 | 1.1 | 0.779 | 1.05 | 0.927 | 0.929 | 0.872 | 0.769 | 0.636 | 0.42 | 0.468 | 0.357 | 0.581 | 0.984 | 0.605 | 1.11 | 0.669 | 0.604
